# Results as given in US11464763B2, “Parasiticidal compositions comprising an isoxazoline active agent, methods and uses thereof” (BOEHRINGER INGELHEIM ANIMAL HEALTH USA INC., priority 2011, dated 2022).
# What was measured:
# [1] = 14C radiolabeled drug, beagle dogs, spot-on administration; cited from earlier work
# [2] = 20° C. and pH of 7; cited from earlier work
# Ctenocephalides felis = test: Spot-on efficacy of Compound A, pyriproxyfen and nitenpyram against Ctenocephalides felis fleas in cats (Example 11); assay type: in vivo; settings: Group 5: 2.08% nitenpyram alone in Transcutol, 5.0 mg/kg
# Description: The efficacy of three spot-on compositions comprising a combination of Compound A, pyriproxyfen and nitenpyram against Ctenocephalides felis fleas in cats was studied and compared with an untreated control and with a spot-on composition comprising nitenpyram alone. Cats were allocated into five Treatment Groups with 5 cats per group: Group 1—cats were untreated (control); Group 2—cats were treated spot-on solution containing 0.83% (w/v) Compound A, 2.08% (w/v) nitenpyram, and 4.17% (w/v) pyriproxyfen in Transcutol® to deliver doses of 1.0 mg/kg Compound A, 2.5 mg/kg nitenpyram and 5.0 mg/kg pyriproxyfen; Group 3—cats were treated a spot-on solution containing 0.83% (w/v) Compound A, 4.17% (w/v) nitenpyram, and 4.17% (w/v) pyriproxyfen in Transcutol® to deliver doses of 1.0 mg/kg Compound A, 5.0 mg/kg nitenpyram and 5.0 mg/kg pyriproxyfen; Group 4—cats were treated with a spot-on composition containing 0.83% (w/v) Compound A, 8.33% (w/v) nitenpyram and 4.17% (w/v) pyriproxyfen in Transcutol® to deliver doses of 1.0 mg/kg Compound A, 10.0 mg/kg nitenpyram and 5.0 mg/kg pyriproxyfen; Group 5—cats were treated with a spot-on composition containing 2.08% (w/v) nitenpyram alone in Transcutol® to deliver a dose of 5.0 mg/kg body weight.
# Treatment was administered once on Day 0. The cats were each infested with approximately 100 C. felis fleas at day −1, on Day 0 approximately 12 hours post treatment and then on Days 1 (approx. 24 hours post treatment), 2, 7, 14, 21, 28 and 35. After each infestation, fleas were removed and counted approximately 12 hours (±3) on Day 0, and then on Days 1, 2, 8, 15, 22, 29 and 36 (24±3 hours after infestation).
SMILES,persistently detected in the whole skin after treatment [1],solubility in water [2] [mg/mL],% Reduction (Ctenocephalides felis; Day 0 (12 h)) [%],% Reduction (Ctenocephalides felis; Day 1 (24 h)) [%],% Reduction (Ctenocephalides felis; Day 2 (24 h)) [%],% Reduction (Ctenocephalides felis; Day 8 (24 h)) [%],% Reduction (Ctenocephalides felis; Day 15 (24 h)) [%],% Reduction (Ctenocephalides felis; Day 22 (24 h)) [%]
N#Cc1nn(-c2c(Cl)cc(C(F)(F)F)cc2Cl)c(N)c1[S+]([O-])C(F)(F)F (centres unmarked) [fipronil],up to 56 days,–,–,–,–,–,–,–
CCN(Cc1ccc(Cl)nc1)/C(=C/[N+](=O)[O-])NC [nitenpyram],–,840,99.44,99.79,100.00,100.00,96.76,93.63
